The values that follow come from patent US20120041068A1, “Extended Release Pharmaceutical Preparations for Active Pharmaceutical Ingredients with pH Dependent Solubility” (Aptapharma, Inc., priority 2010, published 2012).

Where a name gives a salt, the structure may show the parent alone.

The data set is described as follows: Effect of crystallization inhibitor on guanfacine HCl solubility (clear vs precipitate on storage). Format: physicochemical. The settings on record: in the presence of polyvinyl pyrrolidone vs comparison formulation without polyvinyl pyrrolidone. The source says: As crystallization inhibitors, highly dispersed silicon dioxide or macromolecular substances are suitable.

As to `N=C(N)NC(=O)Cc1c(Cl)cccc1Cl` [guanfacine, guanfacine hydrochloride], the “tendency toward crystal formation” value is given as “less tendency toward crystal formation”.
